What was measured:
Type in all cases: cell-based
[1] = system: granulocyte from rabbit peritoneal cavity; assay: Action of phagocytosis inhibitors on sCD14-ST production by rabbit granulocyte stimulated with E. coli; settings: inhibitor preincubated 37° C. 30 minutes, then 20 times by cell count of E. coli, 2 hours (FIG. 6)
Experimental: (§1) Two step sandwich ELISA system was constructed by using the F1301-9-1 antibody produced in Example 1-(4) for the solid phase antibody, and the F1258-7-2 Fab′-HRP antibody prepared in Example 3-(1) for the labeling antibody. More specifically, the F1301-9-1 antibody was diluted with D-PBS (pH 7.4) to 10 μg/mL, and added to the wells of immunoplate (Maxisorb, Nunc) at 50 μL/well. After allowing the reaction to proceed overnight at 4° C., the well was washed 5 times with ion exchanged water. D-PBS (pH 7.4) containing 5% StabilGuard (SurModics) and 0.1% Tween 20 was added to the wells at 200 μL/well for blocking. Next, the specimen was diluted by using 150 mM phosphate buffer (pH 6.0) containing 5% normal rabbit serum (serum from which soluble CD14 antigen has been removed by using the rabbit CD14 affinity antibody column), 1% BSA, and 0.1% Tween 20 for dilution, and the diluted specimen was added to the well at 50 μL/well and allowed to react at 25° C. for 3 hours. After completion of the reaction, the well was washed 5 times with physiological saline containing 0.05% Tween 20. The F1258-7-2 Fab′-HRP was diluted with 75 mM phosphate buffer (pH 6.4) containing 4% rat serum and 0.05% Tween 20, and added to the well at 50 μL/well. […] The reaction was ceased with 0.5M sulfuric acid solution, and absorbance at 450 nm was measured by using a plate spectrophotometer (NJ-2100, Intermed Japan). […]

[2] = system: human peripheral blood granulocyte; assay: Action of phagocytosis inhibitors on sCD14-ST production by human granulocyte stimulated with E. coli; settings: inhibitor preincubated 37° C. 1 hour, then 30 times by cell count of E. coli, 2 hours (FIG. 9)
Experimental: Granulocyte fraction was prepared from peripheral blood collected from a healthy human donor by density-gradient centrifugation using two layers each having a specific gravity of d=1.077 and d=1.119.
Various leukocyte stimulants were added to the granulocyte to evaluate the amount of sCD14-ST produced. More specifically, human peripheral blood granulocyte collected in Example 7-(1) was suspended in RPMI1640 culture containing 10% healthy human serum, 2 mM Glutamin, 10 mM HEPES, and 10 ng/ml G-CSF (SIGMA R8758) to a cell concentration of 0.5×10^7 cells/mL, and added to the wells of a 96 well culture plate (Nunclon Surface, Nunc) at 100 μL/well. The granulocyte was incubated overnight at 37° C. in the presence of 5% carbon dioxide. Next, various stimulants were adjusted to 1.5 fold concentration with HBSS buffer containing 10% healthy human serum, 2 mM Glutamin, and 10 mM HEPES, and added to the well at 200 μL/well. After incubating at 37° C. for 2 hours, the supernatant was collected by centrifugation, and human sCD14-ST was measured by using the assay kit described in Example 7-(3) of WO 2005/108429. More specifically, the sandwich assay kit used was the one containing the antibody which binds to the peptide consisting the amino acid sequence of 53rd to 68th amino acid residue of the human CD14 (S68 antibody), which specifically recognizes the human sCD14-ST. […]

[3] = system: granulocyte from the rabbit peritoneal cavity; assay: High molecular weight sCD14 production by rabbit granulocyte stimulated with leukocyte stimulants; settings: stimulant, kit for high molecular weight sCD14 (R&D) (FIG. 5)
[4] = system: granulocyte from the rabbit peritoneal cavity; assay: sCD14-ST production by rabbit peritoneal granulocyte stimulated with leukocyte stimulants; settings: rabbit granulocyte 1×10^7 cells/mL, stimulant, 37° C. for 2 hours, supernatant, sandwich ELISA (FIG. 4)
Experimental: as §1, with “hours.” for “hours. After completion of the reaction, the well was washed 5 times with physiological saline containing 0.05% Tween 20. The F1258-7-2 Fab′-HRP was diluted with 75 mM phosphate buffer (pH 6.4) containing 4% rat serum and 0.05% Tween 20, and added to the well at 50 μL/well.”
Various leukocyte stimulants were added to the granulocyte to evaluate the amount of sCD14-ST produced. […] After incubating at 37° C. for 2 hours, the supernatant was collected by centrifugation and sCD14-ST was measured by the assay system of Example 3-(2).

SMILES	Production of the rabbit sCD14-ST (effect of inhibitor) [1]	sCD14-ST production (effect of inhibitor) [2]	production of the high molecular weight sCD14 [3]	sCD14-ST production [4]
C=C1[C@@H](C)[C@H]2[C@H](Cc3ccccc3)NC(=O)[C@]23[C@H](OC(C)=O)/C=C/[C@@](C)(O)C(=O)[C@@H](C)C/C=C/[C@H]3[C@@H]1O [Cytochalasin D]	inhibited	inhibited the sCD14-ST production		
CCCCCCCCCCCCCC(=O)O[C@@H]1[C@@H](C)[C@@]2(O)[C@@H](C=C(CO)C[C@]3(O)C(=O)C(C)=C[C@@H]23)[C@@H]2C(C)(C)[C@]12OC(C)=O [PMA, phorbol myristate acetate]			increase in the production of the high molecular weight sCD14 was recognized	increase in the sCD14-ST was not recognized
COC[C@H]1OC(=O)c2coc3c2[C@@]1(C)C1=C(C3=O)[C@@H]2CCC(=O)[C@@]2(C)C[C@H]1OC(C)=O [Wortomanin]	inhibited	inhibited the sCD14-ST production		
CSCC[C@H](NC=O)C(=O)N[C@@H](CC(C)C)C(=O)N[C@@H](Cc1ccccc1)C(=O)O [fMLP, formyl methionyl leucyl phenylalanine]				increase in the sCD14-ST was not recognized
